Values quoted from earlier work as cited in patent US8791152B2, “Stable pharmaceutical composition containing docetaxel and a method of manufacturing the same” (SK Chemicals Co., Ltd., priority 2006, dated 2014).

In the case of `CC(=O)O[C@@]12CO[C@@H]1C[C@H](O)[C@@]1(C)C(=O)[C@H](O)C3=C(C)[C@@H](OC(=O)[C@H](O)[C@@H](NC(=O)OC(C)(C)C)c4ccccc4)C[C@@](O)([C@@H](OC(=O)c4ccccc4)[C@H]21)C3(C)C` [Docetaxel, docetaxel], the Solubility in water is given as “almost insoluble in water”.
